“And” between values parts separate entries of the source, which are not always exact repeats. Identical values can stand only once.
Biological target: T1, Histidine--tRNA ligase (Leishmania infantum, UniProt A4I591)
T1 sequence (A4I591 whole entry): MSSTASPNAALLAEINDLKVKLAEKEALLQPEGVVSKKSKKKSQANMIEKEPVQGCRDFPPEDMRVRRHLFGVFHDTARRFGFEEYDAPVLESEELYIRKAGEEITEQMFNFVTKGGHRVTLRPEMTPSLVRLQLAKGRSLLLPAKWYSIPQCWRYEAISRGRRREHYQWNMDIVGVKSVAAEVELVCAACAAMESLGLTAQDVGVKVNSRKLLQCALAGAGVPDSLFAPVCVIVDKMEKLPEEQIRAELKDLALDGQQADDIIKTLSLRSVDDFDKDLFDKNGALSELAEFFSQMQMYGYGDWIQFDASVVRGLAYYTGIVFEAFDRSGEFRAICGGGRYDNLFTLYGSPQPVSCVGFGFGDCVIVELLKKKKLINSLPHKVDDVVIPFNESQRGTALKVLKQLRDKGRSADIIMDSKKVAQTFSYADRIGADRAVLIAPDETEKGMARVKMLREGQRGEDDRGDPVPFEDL
Assay: Leishmania infantum Histidine tRNA synthetase (LdHisRS)
Type: functional

Row | Structure (SMILES) | IC50
1 | Cc1nn(-c2ccccn2)c(C)c1[C@@H]1C=C[C@@H](NC(=O)NC(C)C)C1 | > 100 µM and 88 µM
2 | Cc1nn(CCC#N)c(C)c1[C@@H]1C=C[C@@H](NCc2cccc(Cl)c2)C1 | > 100 µM
3 | O=C(NC[C@H]1CCCC[C@H]1O)c1ccc2nc(-c3ccco3)[nH]c2c1 | 21 µM and 25.5 µM
4 | CCN1C(=O)C(C#N)=C(C)/C(=C/C2=Cc3ccccc3OC2)C1=O | 1.68 µM and 1.77 µM and 1.36 µM and 1.79 µM
5 | O=C(Cc1cnc(-c2c(Cl)cccc2Cl)s1)N1CCOCC1 | > 100 µM
6 | Cc1nnc(SCC(=O)c2cc3c(cc2Cl)NC(=O)C3)o1 | 42.4 µM and 52.8 µM
7 | Nc1nnc(SCC(=O)c2cc3c(cc2Cl)NC(=O)C3)s1 | > 100 µM and 77.9 µM
8 | CC1=Nc2c(c(=O)[nH]n2C(C)C)C(c2ccc3c(c2)OCCO3)S1 (stereo not drawn) | > 100 µM
9 | CC1=Nc2c(c(=O)[nH]n2C(C)C)C(c2ccc3c(c2)n(C)c(=O)n3C)S1 (stereo not drawn) | > 100 µM
10 | COc1ccc(C2SC(C)=Nc3c2c(=O)[nH]n3C2CCCC2)cc1O (stereo not drawn) | > 100 µM
11 | COc1ccc2c(c1)c(C(=O)Nc1nnn[nH]1)cn2C(C)C | > 100 µM
12 | O=C(C1=NN(Cc2ccccc2)c2ccccc2S1(=O)=O)N1CCCC1 | 40.6 µM and 39.5 µM
13 | CCN(C(=O)c1nc2c(s1)CCCN2Cc1ccccc1)C(C)C | 22.3 µM and 17.3 µM
14 | O=C(c1nc2c(s1)CCCN2CC1CC1)N1CCOCC1 | 19 µM and 13.2 µM
15 | COCCn1cc(-c2cc(C(=O)N3CCCC3)c3ccccn23)nc1C | > 100 µM
16 | Cc1ccc(N2CCc3sc(C(=O)N4CCOCC4)cc32)nn1 | > 100 µM
17 | CC(C)NC(=O)C1Cc2nc(-c3ccsc3)sc2N1CC1CC1 (stereo not drawn) | 33.6 µM and 37.3 µM
18 | COCCN1CCCc2sc(C(=O)NCC3CCCO3)nc21 (stereo not drawn) | 22.4 µM and 24.1 µM
19 | c1cc(-c2ccc3c(c2)CCC32CCN(c3nncs3)CC2)co1 | 12.5 µM and 10.1 µM
20 | c1cc(-c2ccc3c(c2)C2(CC3)CCN(c3nncs3)CC2)ccn1 | 29.8 µM and 26.8 µM
21 | c1cc(-c2nnc3sc(CCN4CCCC4)nn23)ccn1 | > 100 µM
22 | Cc1c(Cl)cccc1NC(=O)Cn1cc(C(=O)O)ccc1=O | > 100 µM
23 | O=c1c2cnc(N3CCOCC3)nc2ccn1-c1ccccc1 | > 100 µM
24 | COc1cc(CCO)c(OC)c2c1OCO2 | > 100 µM

Row | Structure (SMILES) | IC50
25 | O=C1CC(c2ccc(C(=O)O)cc2)c2ncn(-c3ccc(Cl)cc3)c2N1 (stereo not drawn) | 15.7 µM and 12.4 µM
26 | O=C1CC(c2ccc(C(=O)O)cc2)c2ncn(-c3ccccc3F)c2N1 (stereo not drawn) | 19.1 µM and 25.2 µM
27 | O=C1CC(c2ccc(C(=O)O)cc2)c2ncn(-c3ccc(F)cc3)c2N1 (stereo not drawn) | 15 µM and 21.9 µM
28 | O=C1CC(c2ccc(C(=O)O)cc2)c2ncn(-c3cccc(Cl)c3)c2N1 (stereo not drawn) | 20.7 µM and 26.5 µM
29 | Cc1cs/c(=N/C(=O)c2csc(NCC(C)C)n2)[nH]1 | 28.6 µM and 46.9 µM
30 | CCOc1ccc(N(CCC#N)C(=O)c2ccnc(SC)c2)cc1 | > 100 µM
31 | COc1cc(CC(=O)Nc2cccc(C(=O)N(C)C)n2)ccc1C | 24.8 µM and 36.9 µM
32 | O=C(Nc1c(N2CCCC2)cccc1N1CCCC1)c1ccccn1 | 32.1 µM and 26.8 µM
33 | COc1ccc2c(c1)CC(NCc1cccc(OCC(N)=O)c1)CC2 (stereo not drawn) | 17 µM and 23.6 µM
34 | Cc1nnc(N2CCc3cnc(C(C)C)nc3C2)c(C#N)c1C | > 100 µM
35 | Cc1ccccc1CC(C)(C)NC(=O)c1cccc(OCC(N)=O)c1 | 77.2 µM and > 100 µM
36 | Cc1csc(CN(C)C(C)C(=O)N2CCc3ccccc3C2)n1 (stereo not drawn) | > 100 µM
37 | CN(C)CCn1c(=O)oc2ccc(NC(=O)N3CCCCCC3)cc21 | > 100 µM
38 | Cn1nc2c(cc1=O)CN(CC(=O)Nc1nccs1)CC2 | > 100 µM
39 | NC(=O)c1ccc(N2CCCCC2)c(NC(=O)c2ccc(F)cc2Cl)c1 | 71.9 µM and 52.6 µM
40 | Nc1cccnc1N1CCCCCC1 | 16.4 µM and 17.4 µM
41 | Cn1ccnc1Sc1ccc(N)cn1 | > 100 µM
42 | COCCN1CCCn2cnc(CNC3CCCC3)c2C1 | 9.13 µM and 12.8 µM
43 | Cc1cc(C(=O)N2CC[C@@H](N(C)C)[C@@H]2Cc2ccccc2)no1 | > 100 µM
44 | O=C(C1CCCCC1)N1C[C@@H]2CCN(c3cnccn3)C[C@@H]2C1 | 66.8 µM and 70.3 µM
45 | CCc1ccc2c(C3CN(CC4CCC4)C3)ncn2c1 | 15.7 µM and 18.7 µM
46 | Fc1ccc(N2CCC3(CC2)CC(OCc2cccnc2)CO3)cc1 (stereo not drawn) | 23.3 µM and 15.8 µM
47 | CC(=O)NCC(=O)N1Cc2nccn2CC(COc2cccnc2)C1 (stereo not drawn) | > 100 µM
48 | Cc1ccc(CNC(=O)c2nc3c(o2)CN(C(=O)c2cccnc2)C3)o1 | 37.2 µM and 54.7 µM

From ChEMBL document CHEMBL3988442, “University of Dundee, Small-Polar-MMV Screening Library” (2021)
